Measurements from the CheMixHub viscosity set.

Experiment: xn = mol fraction of the nth substance listed

CCCCCOC(C)=O + CCCCCC
303.15 K, 101.3 kPa
Conditions | viscosity [mPa·s]
x1 = 0.1004 | 0.303
x1 = 0.2054 | 0.3329
x1 = 0.298 | 0.3626
x1 = 0.403 | 0.4007
x1 = 0.5009 | 0.443
x1 = 0.6017 | 0.4937
x1 = 0.6958 | 0.5456
x1 = 0.8016 | 0.6101
x1 = 0.8978 | 0.6752

CCOC(=O)CC + CCCCCC
303.15 K, 101 kPa
Conditions | viscosity [mPa·s]
x1 = 0.1832 | 0.2997
x1 = 0.3971 | 0.3276
x1 = 0.4989 | 0.3451
x1 = 0.5988 | 0.3661
x1 = 0.8005 | 0.4138

C=CC(=O)OC + CCCCCCC
viscosity [mPa·s], 100 kPa
Conditions | x1 = 0.1065 | x1 = 0.2053 | x1 = 0.3084 | x1 = 0.4061 | x1 = 0.5019 | x1 = 0.6048 | x1 = 0.703 | x1 = 0.8014 | x1 = 0.9456
303.15 K | 0.367 | 0.361 | 0.36 | 0.362 | 0.367 | 0.375 | 0.387 | 0.402 | 0.426
308.15 K | 0.337 | 0.333 | 0.332 | 0.336 | 0.343 | 0.353 | 0.365 | 0.381 | 0.406
313.15 K | 0.329 | 0.326 | 0.325 | 0.326 | 0.332 | 0.341 | 0.352 | 0.366 | 0.388

CC(C)CO + CCCCCCC
303.15 K, 101.33 kPa
Conditions | viscosity [mPa·s]
x2 = 0.1513 | 1.552
x2 = 0.3016 | 1.023
x2 = 0.4515 | 0.724
x2 = 0.6022 | 0.562
x2 = 0.7374 | 0.478
x2 = 0.8984 | 0.421

CCCCCC + CCCCCCC
Conditions | viscosity [mPa·s]
298 K, 101.33 kPa, x2 = 0.1005 | 0.3132
298 K, 101.33 kPa, x2 = 0.1957 | 0.3202
298 K, 101.33 kPa, x2 = 0.3837 | 0.3365
298 K, 101.33 kPa, x2 = 0.508 | 0.3471
298 K, 101.33 kPa, x2 = 0.6023 | 0.3554
298 K, 101.33 kPa, x2 = 0.7154 | 0.3649
298 K, 101.33 kPa, x2 = 0.8009 | 0.3727
298 K, 101.33 kPa, x2 = 0.8944 | 0.3801
298.15 K, 101 kPa, x2 = 0.2069 | 0.3145
298.15 K, 101 kPa, x2 = 0.2091 | 0.315
298.15 K, 101 kPa, x2 = 0.2351 | 0.316
298.15 K, 101 kPa, x2 = 0.2355 | 0.316
298.15 K, 101 kPa, x2 = 0.2614 | 0.317
298.15 K, 101 kPa, x2 = 0.2637 | 0.317
298.15 K, 101 kPa, x2 = 0.2921 | 0.319
298.15 K, 101 kPa, x2 = 0.2929 | 0.319
298.15 K, 101 kPa, x2 = 0.3129 | 0.32
298.15 K, 101 kPa, x2 = 0.3245 | 0.3205
298.15 K, 101 kPa, x2 = 0.3582 | 0.323
298.15 K, 101 kPa, x2 = 0.3665 | 0.3245
298.15 K, 101 kPa, x2 = 0.3904 | 0.325
298.15 K, 101 kPa, x2 = 0.3907 | 0.325
298.15 K, 101 kPa, x2 = 0.4267 | 0.3275
298.15 K, 101 kPa, x2 = 0.4279 | 0.328
298.15 K, 101 kPa, x2 = 0.4662 | 0.331
298.15 K, 101 kPa, x2 = 0.4687 | 0.331
298.15 K, 101 kPa, x2 = 0.5072 | 0.3345
298.15 K, 101 kPa, x2 = 0.5084 | 0.3345
298.15 K, 101 kPa, x2 = 0.5516 | 0.339
298.15 K, 101 kPa, x2 = 0.5526 | 0.338
298.15 K, 101 kPa, x2 = 0.5986 | 0.344
298.15 K, 101 kPa, x2 = 0.5994 | 0.344
298.15 K, 101 kPa, x2 = 0.6496 | 0.35
298.15 K, 101 kPa, x2 = 0.6507 | 0.35
298.15 K, 101 kPa, x2 = 0.6856 | 0.3545
298.15 K, 101 kPa, x2 = 0.6881 | 0.355
298.15 K, 101 kPa, x2 = 0.7266 | 0.3595
298.15 K, 101 kPa, x2 = 0.728 | 0.36
298.15 K, 101.33 kPa, x1 = 0.1059 | 0.3792
298.15 K, 101.33 kPa, x1 = 0.2067 | 0.3658
298.15 K, 101.33 kPa, x1 = 0.302 | 0.358
298.15 K, 101.33 kPa, x1 = 0.406 | 0.3485
298.15 K, 101.33 kPa, x1 = 0.5051 | 0.3409
298.15 K, 101.33 kPa, x1 = 0.6064 | 0.3305
298.15 K, 101.33 kPa, x1 = 0.704 | 0.3227
298.15 K, 101.33 kPa, x1 = 0.8008 | 0.3123
298.15 K, 101.33 kPa, x1 = 0.8993 | 0.3075

CCOC(=O)CC + CCCCCCC
viscosity [mPa·s], 101.3 kPa
Conditions | 308.15 K | 318.15 K
x1 = 0.0514 | 0.356 | 0.325
x1 = 0.0967 | 0.36 | 0.329
x1 = 0.2165 | 0.369 | 0.341
x1 = 0.3027 | 0.376 | 0.35
x1 = 0.4024 | 0.386 | 0.36
x1 = 0.5033 | 0.396 | 0.372
x1 = 0.588 | 0.406 | 0.383
x1 = 0.7003 | 0.421 | 0.397
x1 = 0.7994 | 0.435 | 0.408
x1 = 0.9003 | 0.45 | 0.421
x1 = 0.9484 | 0.458 | 0.428
